According to PubChem BioAssay AID2060487 (Molecular Pharmacology Branch, DTP, NCI, 2025):

Test system: 997537-175-T-J1-PDC complex spheroid viability
Assay: Anticancer human tumor 997537-175-T-J1-PDC patient-derived colon adenocarcinoma cell line growth inhibition [GQUAD]
Settings: for IC50: curve of first compound; for viability, T/C: stronger effect = lower value
In short: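 Viability of tumor cells grown as complex spheroids with endothelial and stromal cells, exposed to drug combinations. Top concentration at or near clinical Cmax (else 10 microM), diluted in half-log increments.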

[1] = second compound 0.0316 µM, first compound 0.0316 µM
[2] = second compound 0.0316 µM, first compound 0.1 µM
[3] = second compound 0.0316 µM, first compound 0.316 µM
[4] = second compound 0.0316 µM, first compound 1 µM
[5] = second compound 0.0316 µM, first compound 3.16 µM
[6] = second compound 0.0316 µM, first compound 10 µM
[7] = second compound 0.1 µM, first compound 0.0316 µM
[8] = second compound 0.1 µM, first compound 0.1 µM
[9] = second compound 0.1 µM, first compound 0.316 µM
[10] = second compound 0.1 µM, first compound 1 µM
[11] = second compound 0.1 µM, first compound 3.16 µM
[12] = second compound 0.1 µM, first compound 10 µM
[13] = second compound 0.316 µM, first compound 0.0316 µM
[14] = second compound 0.316 µM, first compound 0.1 µM
[15] = second compound 0.316 µM, first compound 0.316 µM
[16] = second compound 0.316 µM, first compound 1 µM
[17] = second compound 0.316 µM, first compound 3.16 µM
[18] = second compound 0.316 µM, first compound 10 µM
[19] = second compound 1 µM, first compound 0.0316 µM
[20] = second compound 1 µM, first compound 0.1 µM
[21] = second compound 1 µM, first compound 0.316 µM
[22] = second compound 1 µM, first compound 1 µM
[23] = second compound 1 µM, first compound 3.16 µM
[24] = second compound 1 µM, first compound 10 µM
[25] = second compound 3.16 µM, first compound 0.0316 µM
[26] = second compound 3.16 µM, first compound 0.1 µM
[27] = second compound 3.16 µM, first compound 0.316 µM
[28] = second compound 3.16 µM, first compound 1 µM
[29] = second compound 3.16 µM, first compound 3.16 µM
[30] = second compound 3.16 µM, first compound 10 µM
[31] = second compound 10 µM, first compound 0.0316 µM
[32] = second compound 10 µM, first compound 0.1 µM
[33] = second compound 10 µM, first compound 0.316 µM
[34] = second compound 10 µM, first compound 1 µM
[35] = second compound 10 µM, first compound 3.16 µM
[36] = second compound 10 µM, first compound 10 µM
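Also: spheroids exposed to the agents for 7 days.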
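For viability, T/C in this document: 100% = DMSO vehicle control viability.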

## COc1cc(C2c3cc4c(cc3C(OC3OC5COC(C)OC5C(O)C3O)C3COC(=O)C23)OCO4)cc(OC)c1O (stereo not drawn) + Cc1[nH]c2ccc(F)cc2c1-c1nc2c3cccnc3c3ncccc3c2[nH]1
Second compound 0.0316 µM
  IC50: > 10 µM
Second compound 0.1 µM
  IC50: > 10 µM
Second compound 0.316 µM
  IC50: > 10 µM
Second compound 1 µM
  IC50: > 10 µM
Second compound 3.16 µM
  IC50: > 10 µM
Second compound 10 µM
  IC50: > 10 µM
[1]
  viability, T/C: 105%
[2]
  viability, T/C: 90%
[3]
  viability, T/C: 102%
[4]
  viability, T/C: 64.1%
[5]
  viability, T/C: 109%
[6]
  viability, T/C: 53.6%
[7]
  viability, T/C: 99%
[8]
  viability, T/C: 75.9%
[9]
  viability, T/C: 89%
[10]
  viability, T/C: 88.3%
[11]
  viability, T/C: 90.8%
[12]
  viability, T/C: 75.3%
[13]
  viability, T/C: 96.4%
[14]
  viability, T/C: 64.1%
[15]
  viability, T/C: 91.1%
[16]
  viability, T/C: 84.5%
[17]
  viability, T/C: 91%
[18]
  viability, T/C: 76.8%
[19]
  viability, T/C: 89.8%
[20]
  viability, T/C: 77.2%
[21]
  viability, T/C: 88.5%
[22]
  viability, T/C: 84.8%
[23]
  viability, T/C: 67.7%
[24]
  viability, T/C: 53.1%
[25]
  viability, T/C: 88.5%
[26]
  viability, T/C: 71%
[27]
  viability, T/C: 85.8%
[28]
  viability, T/C: 75.7%
[29]
  viability, T/C: 98.6%
[30]
  viability, T/C: 72.4%
[31]
  viability, T/C: 84.8%
[32]
  viability, T/C: 92.7%
[33]
  viability, T/C: 78.6%
[34]
  viability, T/C: 81%
[35]
  viability, T/C: 86%
[36]
  viability, T/C: 65.2%

## COc1cccc2c1C(=O)c1c(O)c3c(c(O)c1C2=O)CC(O)(C(=O)CO)CC3OC1CC(N)C(O)C(C)O1 (stereo not drawn) + Cc1[nH]c2ccc(F)cc2c1-c1nc2c3cccnc3c3ncccc3c2[nH]1
Second compound 0.0316 µM
  IC50: > 10 µM
Second compound 0.1 µM
  IC50: 9.79 µM
Second compound 0.316 µM
  IC50: 8.04 µM
Second compound 1 µM
  IC50: 8.48 µM
Second compound 3.16 µM
  IC50: 6.46 µM
Second compound 10 µM
  IC50: 5.6 µM
[1]
  viability, T/C: 97.6%
[2]
  viability, T/C: 82.8%
[3]
  viability, T/C: 101%
[4]
  viability, T/C: 97.7%
[5]
  viability, T/C: 95.5%
[6]
  viability, T/C: 51.1%
[7]
  viability, T/C: 80.7%
[8]
  viability, T/C: 78%
[9]
  viability, T/C: 95.4%
[10]
  viability, T/C: 91.7%
[11]
  viability, T/C: 96.9%
[12]
  viability, T/C: 49.2%
[13]
  viability, T/C: 101%
[14]
  viability, T/C: 83.3%
[15]
  viability, T/C: 80.7%
[16]
  viability, T/C: 96.9%
[17]
  viability, T/C: 79.8%
[18]
  viability, T/C: 43.1%
[19]
  viability, T/C: 76.2%
[20]
  viability, T/C: 91.3%
[21]
  viability, T/C: 92.7%
[22]
  viability, T/C: 85.4%
[23]
  viability, T/C: 80.3%
[24]
  viability, T/C: 44.9%
[25]
  viability, T/C: 74%
[26]
  viability, T/C: 64.4%
[27]
  viability, T/C: 84.1%
[28]
  viability, T/C: 83.6%
[29]
  viability, T/C: 95.1%
[30]
  viability, T/C: 31.4%
[31]
  viability, T/C: 67.6%
[32]
  viability, T/C: 86.5%
[33]
  viability, T/C: 94.1%
[34]
  viability, T/C: 88.7%
[35]
  viability, T/C: 66.7%
[36]
  viability, T/C: 33.2%

## Cc1cccc(N(C)C(=O)C2C(O)CCN2c2nc(C)cc(C(F)(F)F)c2C#N)c1 (stereo not drawn) + Cc1[nH]c2ccc(F)cc2c1-c1nc2c3cccnc3c3ncccc3c2[nH]1
Second compound 0.0316 µM
  IC50: > 10 µM
Second compound 0.1 µM
  IC50: > 10 µM
Second compound 0.316 µM
  IC50: > 10 µM
Second compound 1 µM
  IC50: > 10 µM
Second compound 3.16 µM
  IC50: > 10 µM
Second compound 10 µM
  IC50: > 10 µM
[1]
  viability, T/C: 104%
[2]
  viability, T/C: 82.7%
[3]
  viability, T/C: 107%
[4]
  viability, T/C: 75.4%
[5]
  viability, T/C: 85.6%
[6]
  viability, T/C: 96%
[7]
  viability, T/C: 101%
[8]
  viability, T/C: 97.8%
[9]
  viability, T/C: 96%
[10]
  viability, T/C: 80.1%
[11]
  viability, T/C: 99%
[12]
  viability, T/C: 90.6%
[13]
  viability, T/C: 101%
[14]
  viability, T/C: 74%
[15]
  viability, T/C: 92.8%
[16]
  viability, T/C: 95%
[17]
  viability, T/C: 100%
[18]
  viability, T/C: 106%
[19]
  viability, T/C: 79.4%
[20]
  viability, T/C: 95.3%
[21]
  viability, T/C: 108%
[22]
  viability, T/C: 85.4%
[23]
  viability, T/C: 104%
[24]
  viability, T/C: 92.7%
[25]
  viability, T/C: 57.9%
[26]
  viability, T/C: 89.9%
[27]
  viability, T/C: 76.9%
[28]
  viability, T/C: 79.2%
[29]
  viability, T/C: 69%
[30]
  viability, T/C: 85.6%
[31]
  viability, T/C: 80.5%
[32]
  viability, T/C: 93.8%
[33]
  viability, T/C: 80.6%
[34]
  viability, T/C: 76.8%
[35]
  viability, T/C: 105%
[36]
  viability, T/C: 95.6%

## Cn1ncnc1[C@H]1c2n[nH]c(=O)c3cc(F)cc(c23)N[C@@H]1c1ccc(F)cc1 + Cc1[nH]c2ccc(F)cc2c1-c1nc2c3cccnc3c3ncccc3c2[nH]1
Second compound 0.0316 µM
  IC50: > 0.316 µM
Second compound 0.1 µM
  IC50: > 0.316 µM
Second compound 0.316 µM
  IC50: > 0.316 µM
Second compound 1 µM
  IC50: > 0.316 µM
Second compound 3.16 µM
  IC50: > 0.316 µM
Second compound 10 µM
  IC50: > 0.316 µM
Second compound 0.0316 µM, first compound 0.000999 µM
  viability, T/C: 101%
Second compound 0.0316 µM, first compound 0.00316 µM
  viability, T/C: 99.5%
Second compound 0.0316 µM, first compound 0.00999 µM
  viability, T/C: 104%
[1]
  viability, T/C: 71%
Second compound 0.0316 µM, first compound 0.0999 µM
  viability, T/C: 82.5%
[3]
  viability, T/C: 83.1%
Second compound 0.1 µM, first compound 0.000999 µM
  viability, T/C: 103%
Second compound 0.1 µM, first compound 0.00316 µM
  viability, T/C: 102%
Second compound 0.1 µM, first compound 0.00999 µM
  viability, T/C: 84.4%
[7]
  viability, T/C: 65.1%
Second compound 0.1 µM, first compound 0.0999 µM
  viability, T/C: 106%
[9]
  viability, T/C: 96.2%
Second compound 0.316 µM, first compound 0.000999 µM
  viability, T/C: 102%
Second compound 0.316 µM, first compound 0.00316 µM
  viability, T/C: 103%
Second compound 0.316 µM, first compound 0.00999 µM
  viability, T/C: 87.1%
[13]
  viability, T/C: 75.8%
Second compound 0.316 µM, first compound 0.0999 µM
  viability, T/C: 99.7%
[15]
  viability, T/C: 93.1%
Second compound 1 µM, first compound 0.000999 µM
  viability, T/C: 83.7%
Second compound 1 µM, first compound 0.00316 µM
  viability, T/C: 74.6%
Second compound 1 µM, first compound 0.00999 µM
  viability, T/C: 91.2%
[19]
  viability, T/C: 81.3%
Second compound 1 µM, first compound 0.0999 µM
  viability, T/C: 96.5%
[21]
  viability, T/C: 87.8%
Second compound 3.16 µM, first compound 0.000999 µM
  viability, T/C: 84.7%
Second compound 3.16 µM, first compound 0.00316 µM
  viability, T/C: 73.2%
Second compound 3.16 µM, first compound 0.00999 µM
  viability, T/C: 73.3%
[25]
  viability, T/C: 70.6%
Second compound 3.16 µM, first compound 0.0999 µM
  viability, T/C: 101%
[27]
  viability, T/C: 84.2%
Second compound 10 µM, first compound 0.000999 µM
  viability, T/C: 78%
Second compound 10 µM, first compound 0.00316 µM
  viability, T/C: 61.3%
Second compound 10 µM, first compound 0.00999 µM
  viability, T/C: 89.8%
[31]
  viability, T/C: 62.9%
Second compound 10 µM, first compound 0.0999 µM
  viability, T/C: 92.5%
[33]
  viability, T/C: 95.3%
